Results taken from US8927570B2, “1-naphthyl-or 1-dihydroacenaphthenyl-pyrido[B]indoles and uses thereof in treating cancers” (priority 2009, dated 2015).

How the values were obtained:
[1] = system: Mia-PaCa2 pancreatic cancer cell line; test: In vitro antiproliferative activity, Mia-PaCa2 pancreatic cancer cell line; format: cell-based
Method: (§1) Substituted β-carboline compounds 4 to 38 were tested for antiproliferative activity against HCT116 colon cancer cells and HPAC, Mia-PaCa2 and Panc-1 pancreatic cancer cell lines. Table 1 lists the IC50 values for the substituted β-carbolines.
(§2) Substituted β-carbolines and analog compounds 39 to 57 were tested for antiproliferative activity against HPAC, Mia-PaCa2 and Panc-1 pancreatic cancer cell lines and MCF-7 and MDA-MB-468 breast cancer cell lines. Table 2 lists the IC50 values for the substituted β-carbolines and analogs thereof.

[2] = system: Panc-1 pancreatic cancer cell line; test: In vitro antiproliferative activity, Panc-1 pancreatic cancer cell line; format: cell-based, human; details: Table 2
Method: as §2

[3] = system: MCF-7 breast cancer cell line; test: In vitro antiproliferative activity, MCF-7 breast cancer cell line; format: cell-based, human
Method: as §2

[4] = system: MDA-MB-468 breast cancer cell line; test: In vitro antiproliferative activity, MDA-MB-468 breast cancer cell line; format: cell-based, human; details: Table 2
Method: as §2

[5] = system: HPAC pancreatic cancer cell line; test: In vitro antiproliferative activity, HPAC pancreatic cancer cell line; format: cell-based; details: Table 2
Method: as §1, §2

[6] = Homo sapiens, MIA PaCa-2, Table 2

| Compound | IC50 [1, 6] | IC50 ([2]; Homo sapiens) | IC50 ([3]; Homo sapiens, MCF7, Table 2) | IC50 ([4]; Homo sapiens) | IC50 ([5]; Homo sapiens) | IC50 ([1]; Table 2) | IC50 [2] | IC50 ([3]; Table 2) | IC50 [4] | IC50 [5] |
| --- | --- | --- | --- | --- | --- | --- | --- | --- | --- | --- |
| CNS(=O)(=O)Cc1ccc2[nH]c3c(-c4cccc5ccccc45)nccc3c2c1 [Compound 42, N-methyl-1-(1-(naphthalen-1-yl)-9H-pyrido[3,4-b]indol-6-yl)methanesulfonamide] | 0.58 µM | 6.11 µM | 2.04 µM | 1.11 µM | 3.83 µM | – | – | – | – | – |
| Cc1ccc2[nH]c3c(-c4cccc5ccccc45)nccc3c2c1 [Compound 51, 6-Methyl-1-(naphthalen-1-yl)-9H-pyrido[3,4-b]indole] | 13.1 µM | > 50 µM | 6.78 µM | 6.54 µM | > 50 µM | – | – | – | – | – |
| Clc1ccc2sc3c(-c4cccc5ccccc45)nccc3c2c1 [Compound 48, 6-Chloro-1-(naphthalen-1-yl)benzo[4,5]thieno[2,3-c]pyridine] | 13.5 µM | > 50 µM | 48.6 µM | 6.05 µM | 50 µM | – | – | – | – | – |
| 1-(1,2-Dihydroacenaphth alen-5-yl)-6-methoxy-9H-pyrido[3,4-b]indole [Compound 47] | – | – | – | – | – | 2.95 µM | > 50 µM | 6.42 µM | 4.47 µM | 4.79 µM |
| c1ccc2c(-c3nccc4c3oc3ccccc34)cccc2c1 [Compound 49, 1-(naphthalen-1-yl)benzofuro[2,3-c]pyridine] | 33.6 µM | > 50 µM | > 50 µM | 50 µM | > 50 µM | – | – | – | – | – |
| c1ccc2c(-c3nccc4c3sc3ccccc34)cccc2c1 [Compound 50, 1-(Naphthalen-1-yl)benzo[4,5]thieno[2,3-c]pyridine] | > 50 µM | > 50 µM | > 50 µM | 14.7 µM | > 50 µM | – | – | – | – | – |
| COc1cccc2c1[nH]c1c(-c3cccc4ccccc34)nccc12 [Compound 39, 8-methoxy-1-(naphthalen-1-yl)-9H-pyrido[3,4-b]indole] | 31.9 µM | 26.5 µM | > 10 µM | > 10 µM | 20.5 µM | – | – | – | – | – |
| CCOC(=O)c1cc2c([nH]c3ccc(OC)cc32)c(-c2cccc3ccccc23)n1 [Compound 55, Ethyl-6-methoxy-1-(naphthalen-1-yl)-9H-pyrido[3,4-b]indole-3-carboxylate] | 17.5 µM | 23.3 µM | 17.6 µM | 5.67 µM | 12.9 µM | – | – | – | – | – |
| Cc1cccc2[nH]c3c(-c4cccc5ccccc45)nccc3c12 [Compound 43, 5-methyl-1-(naphthalen-1-yl)-9H-pyrido[3,4-b]indole] | 1.17 µM | 4.56 µM | 7.83 µM | 1.41 µM | 4.03 µM | – | – | – | – | – |
| Cn1c2ccccc2c2ccnc(-c3cccc4ccccc34)c21 [Compound 56, 9-Methyl-1-(naphthalen-1-yl)-9H-pyrido[3,4-b]indole] | 37.4 µM | 33.9 µM | 50.8 µM | 14.2 µM | 21.2 µM | – | – | – | – | – |
| COc1ccc2[nH]c3c(-c4cccc5c(Br)cccc45)nccc3c2c1 [Compound 45, 1-(5-bromonaphthalen-1-yl)-6-methoxy-9H-pyrido[3,4-b]indole] | 1.17 µM | 2.92 µM | 6.85 µM | 1.77 µM | 6.18 µM | – | – | – | – | – |
